# Square brackets hold non-standard residues; d marks the D form. Peptide text beside a SMILES is read from it. * marks the point of attachment. Tyr(3-NO2) = N[C@@H](Cc1ccc(O)c([N+](=O)[O-])c1)C(=O)O; AMC = Cc1cc(=O)oc2cc(N*)ccc12; Tle = CC(C)(C)[C@H](N)C(=O)O; 2Abz = Nc1ccccc1C(=O)O
# What was measured:
# HCMV protease [1] = molecular target: T1, HCMV protease (Human cytomegalovirus, UniProt P16753); assay: Inhibitory activity on HCMV protease (IC50); assay type: biochemical
# T1 construct: UL80 gene from HCMV strain AD169, aa 1-256; made in house
# Description: The substrate of formula 1 was used to implement a 100 nM HCMV protease assay for routine screening of inhibitors. However rapid progress in the structure-activity relationship (SAR) studies eventually required a reduction of the enzyme concentration in order to differentiate between potent compounds. Indeed an IC50 value cannot be lower than half the enzyme concentration in the assay. Reducing the enzyme therefore permits accurate determination of the potency of active inhibitors.
# The large reduction in Km was responsible for this substantial increase in activity and reflected the anticipated improvement in binding. The inhibitory activity of the N-terminal product ABz-Tbg-Tbg-Asn(Me)2 -Ala-OH was determined to establish if it could interfere with the course of the reaction.
# HCMV protease [2] = molecular target: T1, HCMV protease; assay: Mode of inhibition by Dixon-plot analysis with substrate 2; assay type: biochemical; details: Dixon-plot of initial rate of hydrolysis at different substrate 2 and inhibitor concentrations; substrate 0.4 to 2.5 Km
# Source text: FIG. 1 illustrates the inhibitory effect of a peptide inhibitor on HCMV protease at various concentrations of an improved substrate of this application.
# The convenient use of fluorescence in this experiment was possible since a range of substrate concentrations from 0.4 to 2.5 Km was permitted. Substrate 1 could not be used in this application since its Km value is well above the inner filter limit.
# [3] = Stability of 10 mM DMSO stock solutions at 4° C.; assay type: physicochemical; details: 10 mM in DMSO, stored at 4° C.
# Description: (§1) Stock solutions (10 mM) in DMSO of the compounds prepared in examples 2, 3, 4, 5 and 6 were stored at 4° C. […] Aliquoted samples of HCMV protease 50 μM (1.4 mg/ml) were kept at -80° C. in storing buffer without detectable loss of activity over an extended period of more than a year. The calculated molecular mass of wild-type HCMV protease was 28042 Da. The concentration of enzyme on which the calculations of the turnover number, kcat, and the specificity constant, kcat /Km, were derived was expressed in terms of total monomer concentration.
# Solubility of substrate = assay type: physicochemical
# HCMV protease [4] = molecular target: T1, HCMV protease; assay: HCMV protease fluorometric assay of substrate cleavage; assay type: biochemical; details: for kcat/Km, fold greater than for the substrate of formula 1 (unoptimized substrate): compared with substrate of formula 1
# Description: (§2) Preparation of recombinant wild-type HCMV protease PCR amplified HCMV protease gene from genomic DNA (UL80 gene from HCMV strain AD169, aa 1-256) was cloned in the NdeI/BamHl restriction sites of the plasmid vector pET-17b and expressed in Escherichia Coli strain BL21(DE3)pLYSs. Following expression by induction with IPTG, cells were harvested and resuspended in lysis buffer (50 mM Tris/HCl pH 8.0, 1 mM EDTA, 1 mM DTT, 25 mM NaCl, and 1 mM PMSF) and sonicated for complete lysis and DNA breakage. Protease inclusion bodies were harvested by centrifugation. The harvested material was washed twice in lysis buffer containing 0.1% nonaethylene glycol octylphenyl ether (NP-40, Sigma Chemical Co.). Solubilization and denaturation of the harvested material were performed by resuspending the inclusion bodies in 100 mM Tris/HCl pH 8.0, 1 mM EDTA, 100 mM DTT, 50 mM NaCl, and 7 M urea and incubating at 37° C. for 2 h. After centrifugation to eliminate insoluble matter, the supernatant was extensively dialyzed in 50 mM MES pH 5.0, 0.1 mM EDTA, 10 mM DTT, and 7 M urea for cation exchange chromatography on Resource S column. The resulting pool of protease-containing fractions was then dialyzed in 25 mM Tris/HCl pH 7.8, 1 mM EDTA, and 1 M urea and diluted to ≈100 μg/ml to which 0.2 mM oxidized glutathione and 2 mM reduced glutathione were added. Incubation was performed overnight at 4° C. with gentle shaking and renaturation was then completed by extensive dialysis in 25 mM Tris/HCl pH 7.8, 1 mM EDTA, 1 mM DTT, and 100 mM NaCl followed by dialysis in storing buffer (20 mM acetate pH 5.0, 0.1 mM EDTA, 1 mM DTT, and 50 mM NaCl) before concentration of the sample to give the desired protease.
# Stock solutions (10 mM) in DMSO of the compounds prepared in examples 2, 3, 4, 5 and 6 were stored at 4° C. […] Aliquoted samples of HCMV protease 50 μM (1.4 mg/ml) were kept at -80° C. in storing buffer without detectable loss of activity over an extended period of more than a year. The calculated molecular mass of wild-type HCMV protease was 28042 Da. […]
# HCMV protease [5] = details: prior literature reports; cited from earlier work
# HCMV protease [6] = molecular target: T1, HCMV protease; assay type: biochemical; details: for Km / kcat / kcat/KM (specificity constant): 200-500 nM HCMV protease, determined by HPLC
# Description: as §2, §1
# HPLC analysis. Specificity constant, kcat /Km, and individual parameters kcat & Km for the peptide substrate of Example 2 were determined by HPLC monitoring of the initial rate of appearance of the N-terminus cleavage product at various substrate concentrations. Incubation buffer contained 50 mM Tris/HCl pH 8, 0.5 M Na2 SO4, 50 mM NaCl, 0.1 mM EDTA, 1 mM TCEP, 3% DMSO v/v, & 0.05% w/v casein to which 20-500 μM substrate was added. Following equilibration at 30° C., the reactions were initiated by addition of 50 nM HCMV protease (total monomer concentration) from a 2.5 μM stock solution in assay buffer and quenched at regular intervals with 1% TFA up to ≈25% total hydrolysis. The aliquots were injected on a C8 reversed-phase column using a linear gradient of acetonitrile in aqueous 3mM SDS containing 0.05% H3 PO4 (22 to 28% acetonitrile at 2 min, to 30% at 4 min, to 50% at 6 min at a constant flow rate of 4 ml/min). A calibration curve of the N-terminus product was used to estimate the extent of the conversion (retention time=2.7 min). The data was fitted to the non-linear regression analysis of the Michaelis-Menten equation by the kinetic software GRAFIT (Grafit, Erithacus Software Ltd, 1989-1992, Version 3.0, Leatherbarrow, R. J., London, U.K.). A similar protocol was adopted for the peptide substrates of Examples 5 and 6. In this case the enzyme concentration used was respectively 500 nM and 200 nM. The HPLC gradient was 25 to 38% acetonitrile at 11 min, to 100% at 13 min at a constant flow rate of 4 ml/min.
# T1 sequence (P16753 1-256): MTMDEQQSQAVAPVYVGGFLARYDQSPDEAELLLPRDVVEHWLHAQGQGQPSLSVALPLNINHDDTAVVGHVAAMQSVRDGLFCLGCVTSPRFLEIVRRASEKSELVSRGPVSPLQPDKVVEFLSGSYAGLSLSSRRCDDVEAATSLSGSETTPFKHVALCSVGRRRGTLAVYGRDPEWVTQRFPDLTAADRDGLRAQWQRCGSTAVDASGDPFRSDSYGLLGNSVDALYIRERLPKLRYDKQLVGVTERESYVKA
compound,measurement,setting,value
C[C@H](NC(=O)[C@H](CC(=O)N(C)C)NC(=O)[C@@H](NC(=O)[C@@H](NC(=O)c1ccccc1N)C(C)(C)C)C(C)(C)C)C(=O)O [ABz-Tbg-Tbg-Asn(Me)2 -Ala-OH] (H-[2Abz][Tle][Tle]D(NMe2)A-OH),IC50,HCMV protease [1],> 75 µM
CC(NC(=O)[C@H](CC(=O)N(C)C)NC(=O)[C@@H](NC(=O)CC(C)(C)C)C(C)(C)C)C(=O)C(=O)NCc1ccccc1 (stereo partly drawn) [DATbg-Tbg-Asn(Me2)-Ala-CONHCH2Ph],mode of inhibition,HCMV protease [2],competitive
CC(C)C[C@H](NC(=O)[C@H](CCCNC(=N)N)NC(=O)[C@H](CO)NC(=O)[C@H](CO)NC(=O)[C@H](C)NC(=O)[C@H](CC(N)=O)NC(=O)[C@@H](NC(=O)[C@@H](NC(=O)c1ccccc1N)C(C)C)C(C)C)C(=O)N[C@@H](Cc1ccc(O)c([N+](=O)[O-])c1)C(=O)N[C@@H](CCCNC(=N)N)C(=O)O [Substrate 1] (H-[2Abz]VVNASSRL[Tyr(3-NO2)]R-OH),stability of compound in stock solution,[3],stable for several weeks
same,solubility,Solubility of substrate,limited solubility
"CC(C)C[C@H](NC(=O)[C@H](CCCNC(=N)N)NC(=O)[C@H](CO)NC(=O)[C@H](CO)NC(=O)[C@H](C)NC(=O)[C@H](CC(=O)N(C)C)NC(=O)[C@@H](NC(=O)[C@@H](NC(=O)c1ccccc1N)C(C)(C)C)C(C)(C)C)C(=O)N[C@@H](Cc1ccc(O)c([N+](=O)[O-])c1)C(=O)N[C@@H](CCCNC(=N)N)C(=O)O [Substrate 2, ABz-Tbg-Tbg-Asn(Me)2 -Ala-Ser-Ser-Arg-Leu-Tyr(3-NO2)-Arg-OH] (H-[2Abz][Tle][Tle]D(NMe2)ASSRL[Tyr(3-NO2)]R-OH)","kcat/Km, fold greater than for the substrate of formula 1 (unoptimized substrate)",HCMV protease [4],60 fold
same,stability of compound in stock solution,[3],stable for several weeks
"CC(=O)N[C@H](C(=O)N[C@H](C(=O)N[C@@H](CC(=O)N(C)C)C(=O)N[C@@H](C)C(=O)Nc1ccc2c(C)cc(=O)oc2c1)C(C)(C)C)C(C)(C)C [Substrate 3, N-Acetyl-Tbg-Tbg-Asn(Me)2 -Ala-AMC] (Ac-[Tle][Tle]D(NMe2)A-{AMC})","kcat/Km, fold greater than for the substrate of formula 1 (unoptimized substrate)",HCMV protease [4],10 fold
same,"kcat/Km, fold smaller than the substrate of formula 2",HCMV protease [4]; compared with substrate of formula 2,6 fold
same,stability of compound in stock solution,[3],stable for several weeks
ABz-GVVNA-SSRLAY(3-NO2)G,Km,HCMV protease [5],134 µM
same,kcat,HCMV protease [5],0.37 s⁻¹
same,kcat/KM,HCMV protease [5],2750 M⁻¹ s⁻¹
DABCYL-RGVVNA-SSRLA-EDANS,kcat/KM,HCMV protease [5],796 M⁻¹ s⁻¹
DABCYL-RRVVNA-S-Aba-RLD(EDANS)-NH2,Km,HCMV protease [5],3 µM
Y(3-NO2)GVVNA-SSRLA-ABz-K,kcat/KM,HCMV protease [5],3167 M⁻¹ s⁻¹
d-Biotin-Arg-Gly-Tbg-Tbg-Asn (Me) 2 -Ala-Ser-Ser-Arg-Leu-Ala-Tyr-NH2 [Substrate 5],Km,HCMV protease [6],19 µM
same,kcat,HCMV protease [6],0.045 s⁻¹
same,kcat/KM (specificity constant),HCMV protease [6],2370 M⁻¹ s⁻¹
"d-Biotin-Arg-Gly-Tbg-Tbg-Asn(Me)2 -Ala-Ser-Ser-Arg-Leu-Ala-Tyr(^125,)-NH2 [Substrate 13a]",Km,HCMV protease [6],19 µM
same,kcat,HCMV protease [6],0.045 s⁻¹
same,kcat/KM (specificity constant),HCMV protease [6],2370 M⁻¹ s⁻¹
same,"kcat/KM, fold greater compared to the substrate of formula 12a",HCMV protease [6]; as measured by HPLC,12 fold
d-Biotin-Arg-Gly-Val-Val-Asn-Ala-Ser-Ser-Arg-Leu-Ala-Tyr-NH2 [Substrate 4],Km,HCMV protease [6],422 µM
same,kcat,HCMV protease [6],0.086 s⁻¹
same,kcat/KM (specificity constant),HCMV protease [6],205 M⁻¹ s⁻¹

# Reference: patent US6194143A, “Substrates for human cytomegalovirus protease” (Boehringer Ingelheim (Canada) Ltd., priority 1998, dated 2001)
